The subject of this test is βarr1/2. Description: DSF with IP6 and/or Cmpd-5. Type of test: binding. Here is the method:
DSF assay was performed to identify β-arrestin-binding small molecules from the drug-like compound library (DDLC) described above. The screen was conducted using the StepOnePlus Real-Time PCR System (Applied Biosystems) with the fluorescent reporter probe SYPRO Orange (Thermo Fisher Scientific) in a 96-well format. Proteins were buffered in 20 mM HEPES (pH 7.5) with 100 mM NaCl. Small molecules (100 μM) were screened with either βARR1 or βARR2 (5 μM). DMSO was used as a vehicle control, and V2Rpp (50 μM) served as a positive control.
For DSF experiments involving the three positive control ligands (V2Rpp, IP6 and heparin, each at 50 μM) binding to β-arrestins, HEPES buffer was used as the vehicle control. Excitation and emission filters for SYPRO Orange were set to 475 nm and 580 nm, respectively. The temperature was increased by 0.5 °C every 30 s, from 25 °C to 99 °C, with fluorescence readings taken at each interval. Raw DSF data were analysed using Applied Biosystems Protein Thermal Shift Software. Fluorescence intensities were plotted as a function of temperature, and the midpoint of transition, or melting temperature (Tm), was calculated by plotting the first derivative of fluorescence emission as a function of temperature (dF/dT). […]

The structures appear in SMILES notation.

As to `C=C1C(=O)[C@]23[C@H](O)[C@H]1CC[C@H]2[C@@]12CO[C@]3(O)[C@@H](O)[C@@H]1C(C)(C)CC[C@@H]2O` [Cmpd-5, (1S,4aR,5S,6S,6aR,9S,11aS,11bS,14R)-1,5,6,14-tetrahydroxy−4,4-dimethyl-8-methylenedecahydro-1H-6,11b-(epoxymethano)-6a,9-methanocyclohepta[a]naphthalen-7(8H)-one], the “effect on IP6-stabilized β-arrestin state by DSF” value is “shifts βarr1/2 away from the IP6-stabilized active state”.

For the origin of these results see paper PMC13489962, “Small-molecule modulation of β-arrestins” (Nature, 2026).
